Assay results as given in patent US20100144626A1, “Treatment of Multi-Drug Resistant Bacterial Infections” (priority 2006, published 2010).
In brackets after ≈: the same amount, converted by molar mass. Entries after “also recorded” stand apart in the source; their conditions may differ. Where two headings read alike, the source gives them in different places.

Experiments:
Format in all cases: cell-based
[1] = test system: Enterococcus faecalis (VRE) E8 VanA; experiment: MIC, agar dilution (BSAC guidelines); settings: E. faecalis (VRE) E8 VanA
Protocol: (§1) In example experiments miconazole nitrate, was dissolved in methanol and econazole nitrate and clotrimazole were dissolved in DMSO and methanol respectively. Other solvents that may be used include caster oil, pyridine, DMSO and 0.9% saline. For IV administration agents may be solubilised in polyethoxylated caster oil, or cyclodextrins such as sulfobutylether7-βcyclodextrin or hydroxypropyl-β-cyclodextrin and lactic acid. Minimum inhibitory concentrations (MICs) of a range of clinical and control bacterial organisms were measured according to BSAC (British Society for Antimicrobial Chemotherapy) guidelines, described briefly as follows;
(§2) Preparation of Agar Plates and Broths
(§3) Stock solutions of each agent were prepared using the formula:
(§4) Where P=μg of active compound per mg (μg/mg) • V=volume required (mL) • C=final concentration of solution (mg/L) • W=weight of agent (mg) to be dissolved in volume V (mL)
(§5) Stock solutions were prepared at concentrations of 1000 mg/L and 100 mg/L. The appropriate amounts of each stock solution were added to separate Petri dishes give the following final concentrations (after the addition of 20 mL molten agar): 128, 64, 32, 16, 8, 4, 2, 1, 0.5, 0.25, 0.12, 0.06, 0.03, 0.015 mg/L.
(§6) Volumes (20 mL) of cooled molten IST agar (oxoid) was added to each Petri dish and mixed by swirling.
(§7) After drying, the plates were stored at 4° C. and protected from light. Plates were used on the day of preparation.
(§8) The test organisms were grown overnight in 5 mL IST broth. Using a dilution in 0.9% saline of 1:500 for Gram-negative organisms and 1:100 for Gram-positive organisms, the appropriate agar plates were inoculated using a multipoint inoculator.
(§9) Plates were incubated at 37° C. in air for 18-20 hours.
(§10) The MIC is the minimum amount of an antibiotic at which there is no visible growth of bacteria. Tiny single colonies or faint hazes were not counted as growth.

[2] = test system: Klebsiella pneumoniae ESBL 700603; experiment: MIC, agar dilution (BSAC guidelines)
Protocol: as §1, §2, §3, §4, §5, §6, §7, §8, §9, §10

[3] = test system: Escherichia coli NCTC 10418; experiment: MIC, agar dilution (BSAC guidelines)
Protocol: as §1, §2, §3, §4, §5, §6, §7, §8, §9, §10

[4] = test system: Pseudomonas aeruginosa NCTC 10662; experiment: MIC, agar dilution (BSAC guidelines)
Protocol: as §1, §2, §3, §4, §5, §6, §7, §8, §9, §10

[5] = test system: Acinetobacter Baumannii ATCC 19606; experiment: MIC, agar dilution (BSAC guidelines)
Protocol: as §1, §2, §3, §4, §5, §6, §7, §8, §9, §10

[6] = test system: Enterococcus faecium (VRE) E15 VanA ATCC 4147; experiment: MIC, agar dilution (BSAC guidelines)
Protocol: as §1, §2, §3, §4, §5, §6, §7, §8, §9, §10

[7] = test system: Enterococcus faecium (VRE) E19 UAA/522 VanB; experiment: MIC, agar dilution (BSAC guidelines); settings: E. faecium (VRE) E19 UAA/522 VanB
Protocol: as §1, §2, §3, §4, §5, §6, §7, §8, §9, §10

[8] = test system: VISA, strain USA/VISA 5827; experiment: MIC, agar dilution (BSAC guidelines); settings: Staphylococcus aureus
Protocol: as §1, §2, §3, §4, §5, §6, §7, §8, §9, §10

[9] = test system: Enterococcus faecium (VRE) VanR B145344C LFE; experiment: MIC, agar dilution (BSAC guidelines); settings: E. faecium (VRE) VanR B145344C LFE
Protocol: as §1, §2, §3, §4, §5, §6, §7, §8, §9, §10

[10] = test system: VISA, strain USA/VISA 5836; experiment: MIC, agar dilution (BSAC guidelines); settings: Staphylococcus aureus
Protocol: as §1, §2, §3, §4, §5, §6, §7, §8, §9, §10

[11] = test system: VISA, strain VISA 3900 UK; experiment: MIC, agar dilution (BSAC guidelines); settings: Staphylococcus aureus
Protocol: as §1, §2, §3, §4, §5, §6, §7, §8, §9, §10

[12] = test system: Staphylococcus epidermidis ATCC 1228; experiment: MIC, agar dilution (BSAC guidelines)
Protocol: as §1, §2, §3, §4, §5, §6, §7, §8, §9, §10

[13] = test system: Enterococcus gallinarum (VRE) E1 NCTC 12359 VanC1; experiment: MIC, agar dilution (BSAC guidelines)
Protocol: as §1, §2, §3, §4, §5, §6, §7, §8, §9, §10

[14] = test system: Enterococcus faecium (VRE) NCTC 7171; experiment: MIC, agar dilution (BSAC guidelines)
Protocol: as §1, §2, §3, §4, §5, §6, §7, §8, §9, §10

[15] = test system: strains of Staphylococci and Enterococci with reduced susceptibility to vancomycin; experiment: Growth inhibition, summary of MIC testing; settings: summary in words
Protocol: as §1, §5, §8, §9, §10

Gram-negative organisms = experiment: Growth inhibition, summary of MIC testing; settings: summary in words
Protocol: as §1, §5, §8, §9, §10

[16] = replicate 1, read-out: Minimum inhibitory concentration (MIC)
[17] = replicate 2, read-out: Minimum inhibitory concentration (MIC)
[18] = replicate 3, read-out: Minimum inhibitory concentration (MIC)

Which results are given for `Clc1ccc(COC(Cn2ccnc2)c2ccc(Cl)cc2Cl)cc1` (centres unmarked) [Econazole]?
MIC [1, 16]: 7 µg/mL (≈ 18.3 µM); MIC [1, 17]: > 6 µg/mL; MIC [1, 18]: > 6 µg/mL; MIC ([2]; ESBL700603, K. pneumoniae ESBL 700603, replicate 1, read-out: Minimum inhibitory concentration (MIC)): > 10 µg/mL; MIC ([2]; ESBL700603, K. pneumoniae ESBL 700603, replicate 2, read-out: Minimum inhibitory concentration (MIC)): > 6 µg/mL; MIC ([2]; ESBL700603, K. pneumoniae ESBL 700603, replicate 3, read-out: Minimum inhibitory concentration (MIC)): > 6 µg/mL; MIC ([3]; NCTC10418, E. coli NCTC 10418, replicate 1, read-out: Minimum inhibitory concentration (MIC)): > 10 µg/mL; MIC ([3]; NCTC10418, E. coli NCTC 10418, replicate 2, read-out: Minimum inhibitory concentration (MIC)): > 6 µg/mL; MIC ([3]; NCTC10418, E. coli NCTC 10418, replicate 3, read-out: Minimum inhibitory concentration (MIC)): > 6 µg/mL; MIC ([4]; NCTC10662, P. aeruginosa NCTC 10662, replicate 1, read-out: Minimum inhibitory concentration (MIC)): > 10 µg/mL; MIC ([4]; NCTC10662, P. aeruginosa NCTC 10662, replicate 2, read-out: Minimum inhibitory concentration (MIC)): > 6 µg/mL; MIC ([4]; NCTC10662, P. aeruginosa NCTC 10662, replicate 3, read-out: Minimum inhibitory concentration (MIC)): > 6 µg/mL; MIC ([5]; ATCC19606, Acinetobacter Baumannii ATCC 19606, replicate 1, read-out: Minimum inhibitory concentration (MIC)): > 10 µg/mL; MIC ([5]; ATCC19606, Acinetobacter Baumannii ATCC 19606, replicate 2, read-out: Minimum inhibitory concentration (MIC)): > 6 µg/mL; MIC ([5]; ATCC19606, Acinetobacter Baumannii ATCC 19606, replicate 3, read-out: Minimum inhibitory concentration (MIC)): > 6 µg/mL; MIC ([6]; E. faecium (VRE) E15 VanA ATCC 4147, replicate 1, read-out: Minimum inhibitory concentration (MIC)): 3 µg/mL (≈ 7.86 µM); MIC ([6]; E. faecium (VRE) E15 VanA ATCC 4147, replicate 2, read-out: Minimum inhibitory concentration (MIC)): 4.5 µg/mL (≈ 11.8 µM); MIC ([6]; E. faecium (VRE) E15 VanA ATCC 4147, replicate 3, read-out: Minimum inhibitory concentration (MIC)): 3 µg/mL (≈ 7.86 µM); MIC [7, 16]: 2 µg/mL (≈ 5.24 µM); MIC [7, 17]: 4.5 µg/mL (≈ 11.8 µM); MIC [7, 18]: 2 µg/mL (≈ 5.24 µM); MIC [8, 16]: 1.5 µg/mL (≈ 3.93 µM); MIC [8, 17]: 2 µg/mL (≈ 5.24 µM); MIC [8, 18]: 2.5 µg/mL (≈ 6.55 µM); MIC [9, 16]: 3.5 µg/mL (≈ 9.17 µM); MIC [9, 17]: 5 µg/mL (≈ 13.1 µM); MIC [9, 18]: 2.5 µg/mL (≈ 6.55 µM); MIC [10, 16]: 2 µg/mL (≈ 5.24 µM); MIC [10, 17]: 4.5 µg/mL (≈ 11.8 µM); MIC [10, 18]: 4 µg/mL (≈ 10.5 µM); MIC [11, 16]: 1.5 µg/mL (≈ 3.93 µM); MIC [11, 17]: 2 µg/mL (≈ 5.24 µM); MIC [11, 18]: 2 µg/mL (≈ 5.24 µM); MIC ([12]; ATCC1228, S. epidermidis ATCC 1228, replicate 1, read-out: Minimum inhibitory concentration (MIC)): 4 µg/mL (≈ 10.5 µM); MIC ([12]; ATCC1228, S. epidermidis ATCC 1228, replicate 2, read-out: Minimum inhibitory concentration (MIC)): 2 µg/mL (≈ 5.24 µM); MIC ([12]; ATCC1228, S. epidermidis ATCC 1228, replicate 3, read-out: Minimum inhibitory concentration (MIC)): 2.5 µg/mL (≈ 6.55 µM); MIC ([13]; E. gallinarum (VRE) E1 NCTC 12359 VanC1, replicate 1, read-out: Minimum inhibitory concentration (MIC)): 3 µg/mL (≈ 7.86 µM); MIC ([13]; E. gallinarum (VRE) E1 NCTC 12359 VanC1, replicate 2, read-out: Minimum inhibitory concentration (MIC)): 5.5 µg/mL (≈ 14.4 µM); MIC ([13]; E. gallinarum (VRE) E1 NCTC 12359 VanC1, replicate 3, read-out: Minimum inhibitory concentration (MIC)): 3 µg/mL (≈ 7.86 µM); MIC ([14]; E. faecium (VRE) NCTC 7171, replicate 1, read-out: Minimum inhibitory concentration (MIC)): 4 µg/mL (≈ 10.5 µM); MIC ([14]; E. faecium (VRE) NCTC 7171, replicate 2, read-out: Minimum inhibitory concentration (MIC)): > 6 µg/mL; MIC ([14]; E. faecium (VRE) NCTC 7171, replicate 3, read-out: Minimum inhibitory concentration (MIC)): > 6 µg/mL; activity against strains of Staphylococci and Enterococci with reduced susceptibility to vancomycin [15]: good activity; also recorded: capable of inhibiting the growth; activity against Gram-negative organisms (Gram-negative organisms): no significant activity
